The source of these data is a melting point compilation (Tetko et al.; mined from patent text by program, amines drawn as free bases though some values may be those of a salt).

A value given as a limit tells only on which side of the number the result lay.

With `O=C(Nc1cccc([N+](=O)[O-])c1)C1=C(Nc2ccccc2)COC1=O`, the melting point lay within 194 to 195 °C.

As for `O=C(CCCN1CCc2ccccc2C1)c1ccc(F)cc1`, the melting point fell in the range of 69 to 71 °C.

For the molecule `CCCn1nc2c(N)nc3ccccc3c2c1CC(C)(C)NC(=O)c1cccnc1`, the melting point lay within 203 to 205 °C.

In the case of `Cc1cccc(COc2cccc(OCc3coc(-c4ccc(F)cc4)n3)c2)c1C(=O)O`, the melting point fell in the range of 159 to 160 °C.

For `COc1cc(OC)c2sc(-c3c(F)cccc3F)nc2c1`, the melting point fell in the range of 136 to 138 °C.

Take `CSc1nc(C)cc(-c2ccc(C(F)(F)F)cc2)n1`: the melting point fell in the range of 77 to 80 °C.

As for `COC(=O)C1=C(CO)NC(C)=C(C(=O)OCC(C)(C)C)C1c1ccccc1C#N` (stereo unspecified), the melting point fell in the range of 178 to 180 °C.

On to `Cc1ccc(-c2nc(N)ncc2-c2ccc(=O)n(C(C)C)n2)cc1`, for which the melting point was 224 °C.

The molecule `CN(C)c1ccc(C2=CCC(C)(C)c3cc(C(O)C#Cc4ccc(C(=O)O)cc4)ccc32)cc1` (stereo unspecified) showed a melting point of 91 °C.

In the case of `CC(=O)Nc1nc(CN2CCN(C(c3ccccc3)c3ccc(Cl)cc3)CC2)cs1` (stereo unspecified), the melting point lay within 140 to 145 °C.

On to `COC(=O)c1ccc(Cn2c(C(=O)C3CCN(CCC4(c5ccccc5)CCN(C(=O)c5cc(OC)c(OC)c(OC)c5)C4)CC3)nc3ccccc32)cc1` (stereo unspecified), for which the melting point is 92 to 96 °C.

Consider `CO[C@]1(c2cccc(OCc3ccc4c(ccc(=O)n4C)c3)c2)CCO[C@@H](C)C1`, for which the melting point lay within 88 to 90 °C.

Molecule `CC(CCCC(C)(C)O)C1CCC2C3C=CC4=CC(=O)C=CC4(C)C3CCC12C` (stereo unspecified) displayed a melting point of 180 to 182 °C.

In the case of `CC(=O)CC(=O)Nc1cccc(OC(=O)NC(C)C)c1`, the melting point stood at 161 °C.

`N#Cc1cnc2sc(-c3ccccc3C=O)cc2c1Nc1cccc2[nH]ccc12` gave a melting point of 137 to 139 °C.

On to `CC1Nc2cc(F)ccc2-n2cccc21` (stereo unspecified), for which the melting point lay in the range of 76 to 78 °C.

The molecule `CCCCC(=N)NC(=O)Nc1ccccc1[N+](=O)[O-]` came in with a melting point of 130 to 132 °C.

`Cc1ccc(S(=O)(=O)OCCCC2CCN(C(c3ccccc3)(c3ccccc3)c3ccccc3)CC2)cc1`: the melting point came to 131 °C.

In turn, `CNC1=Nc2ccc(Cl)cc2C(c2ccccc2Cl)=NC1` gave a melting point of 216 to 219 °C.

As for `N#Cc1cccc(CN2C(=O)c3ccccc3C2=O)c1`, the melting point was 147 to 149 °C.

The molecule `CN(C)C=C(C(=O)c1ccc(Cl)cc1Cl)n1cncn1` returned a melting point of 173 °C.

The molecule `COc1ccc(-c2nc(SCCCSc3nc(-c4ccc(OC)cc4)c(-c4ccc(OC)cc4)[nH]3)[nH]c2-c2ccc(OC)cc2)cc1` registered a melting point of 128 to 130 °C.

For `NC(=O)c1ccc(-c2ccnc(C(=O)N(O)Cc3ccccc3)c2)cc1`, the melting point fell in the range of 155 to 160 °C.

Molecule `NCCNc1nc(N)nc(-c2cc(Cl)ccc2Cl)n1` returned a melting point of 152 to 153 °C.

`COC(=O)C1=C(C(F)F)NC(C)=C(C(=O)OC(C)C)C1c1cccc([N+](=O)[O-])c1` (stereo unspecified) registered a melting point of 140 to 141 °C.

`CCCOc1ccccc1C1=NC(=O)C2=NC(SC)=NC2=N1` had a melting point of 245 to 247 °C.

Regarding `CCn1c(=O)c2[nH]c(/C=C/c3cc4c(cc3Br)OCO4)nc2n(CC)c1=O`, the melting point was over 270 °C.

On to `CNc1cc2c(cn1)c(=O)n1nccc1n2C`, for which the melting point is over 300 °C.

Turning to `O=C(CCC1CCCCC1)NC1N=C(c2ccccc2)c2ccccc2NC1=NO` (stereo unspecified), the melting point worked out at 196 °C.

For the molecule `Nc1ccc(C(=O)CCc2ccc(Cl)c(Cl)c2)cc1`, the melting point fell in the range of 127 to 129 °C.

For the molecule `Cn1cccc1-c1ccc2c(c1)C1(CCCCC1)C(=O)N2`, the melting point was found to be 210 °C.

In turn, `COc1ccc(-c2ccccc2)c2sc(N)nc12` returned a melting point of 207 to 208 °C.

Consider `CC(=O)Oc1ccc(C2=CC(C)(C)c3ccccc3O2)cc1`, for which the melting point lay within 84 to 86 °C.

`O=C(C(=O)c1ccc(F)cc1Br)c1ccccc1` displayed a melting point of 62 to 66 °C.

Regarding `COc1ccc(CCN(C)CCc2ccc(NC(=O)c3cccc4c(=O)c5ccccc5sc34)cc2)cc1OC`, the melting point turned out to be 154 °C.

For `CSC1C(=O)Nc2cccc([N+](=O)[O-])c21` (stereo unspecified), the melting point was 228 to 230 °C.

Molecule `N#CN=C(Nc1cccnc1)NC(NC(=O)c1ccc(I)cc1)C(Cl)(Cl)Cl` (stereo unspecified) came in with a melting point of 208 to 210 °C.

Molecule `COc1nc(C2CC2)nc(O)c1C` yielded a melting point of 178 °C.

Regarding `NC(=O)c1c(N)sc(-c2ccc(F)cc2)c1-c1ccccc1`, the melting point lay within 205 to 207 °C.

Molecule `COc1cc(-c2nc3ccc(OCCCN(C)C)cc3n2Cc2ccccc2C(F)(F)F)cc(OC)c1OC` gave a melting point of 142 °C.

Molecule `CCOC(=O)c1cc(=O)c2cc3c(=O)cc(C(=O)OCC)n(CC)c3cc2o1` displayed a melting point of 193 to 194 °C.

Regarding `CC(C)C(=O)c1cn(Cc2c(F)cccc2F)c2sc(-c3ccc(NC(=O)C(C)CO)cc3)c(CN(C)Cc3ccccc3)c2c1=O` (stereo unspecified), the melting point is 161 to 162 °C.

Take `O=[N+]([O-])c1ccc(Oc2ccc(Cl)c(Cl)c2)nc1`: the melting point lay in the range of 101 to 102 °C.

In turn, `COC(=O)C(C#N)(Cc1ccc(-c2cccc(C(F)(F)F)c2)cc1)C(c1ccccc1OC)c1cccc2ccccc12` (stereo unspecified) yielded a melting point of 202 to 204 °C.

`OC(CCSC(=S)Nc1ccc(Cl)cn1)c1ccc(F)cc1` (stereo unspecified) displayed a melting point of 86 °C.

As for `Cn1ncc2c1-c1c(Oc3ccc(-c4ccc(F)cc4)nc3)sc(C(N)=O)c1CC2`, the melting point was 236 to 237 °C.

`Cc1ccc(C(=O)Nc2c(NC(=O)CCl)ccc3c2C(=O)c2ccccc2C3=O)cc1` displayed a melting point of 198 to 199 °C.

In turn, `CN1C(=O)Cn2c(nnc2C(F)(F)F)-c2cc(Cl)ccc21` came in with a melting point of 186 to 187 °C.

Molecule `O=[N+]([O-])c1ccc(OC23CC4CC(CC(C4)C2)C3)cc1` had a melting point of 132 to 134 °C.

For `O=[N+]([O-])c1ccc2c(c1)Sc1cc(OCCF)ccc1N2`, the melting point fell in the range of 189 to 191 °C.

Take `O=S(=O)(CS(=O)(=O)/C(F)=C(/F)c1c(F)c(F)c(F)c(F)c1F)/C(F)=C(/F)c1c(F)c(F)c(F)c(F)c1F`: the melting point was in the range of 193 to 195 °C.

For `Cc1c(C(N)=O)oc2nn(C)c(C)c12`, the melting point was 148 to 150 °C.

Regarding `CC(C)(C)C(O)(C=Cc1ccc(Cl)cc1)n1cncn1` (stereo unspecified), the melting point was 139 to 141 °C.

For the molecule `O=C(O)COc1cc(C(=O)O)ccc1NC(=O)NC(=O)c1ccc(F)cc1Cl`, the melting point lay in the range of 279 to 281 °C.

The molecule `Cc1cc(C)nc(-c2ccc(CN3CCN(c4ccc(O)cc4)CC3)cc2)n1` showed a melting point of 165 to 167 °C.

As to `CCc1nc(-c2ccc(OC)cc2)c(-c2cccnc2)s1`, the melting point lay within 59 to 60 °C.

`COc1cc(C(=O)CC(=O)C(C)(C)C)cc(OC)c1OC` had a melting point of 67.3 to 68.4 °C.

`Cc1ccc(C2COc3cc(O)ccc3C2c2ccc(OCCN3CCCCC3)cc2)cc1` (stereo unspecified): the melting point lay within 146 to 148 °C.

With `Cn1c(C(=O)NN2CCCCC2)cc(-c2ccc(Cl)cc2Cl)c1-c1ccc(Cl)cc1`, the melting point came to 218 °C.

With `CC(=O)Nc1ccc(Br)c2c1CCCC2`, the melting point was in the range of 185 to 189 °C.

`CCOC(=O)C(C)(C)Oc1ccc(OCc2nc(-c3ccc(C(C)(C)C)cc3)no2)cc1` displayed a melting point of 79 to 81 °C.

`CON(C)C(=O)c1cc(Br)ccc1N` registered a melting point of 80 to 81 °C.

On to `COC(=O)C(c1ccccc1)(c1ncc[nH]1)c1ccccc1C` (stereo unspecified), for which the melting point was determined as 148 °C.

`NC(=O)c1ccc(-c2ccc3nnn(Cc4ccc5ncsc5c4)c3n2)cc1Cl` yielded a melting point of 238 to 240 °C.

Molecule `COCC(C)Oc1cc(Oc2ccc(S(C)(=O)=O)cc2)cc2cc(C(=O)O)[nH]c12` (stereo unspecified) displayed a melting point of 136 to 137 °C.

`CC(=O)Nc1ccc(OC(C)CN2CCN(CCc3ccc(C(=O)O)cc3)CC2)cc1` (stereo unspecified) came in with a melting point of 234 to 235 °C.

In the case of `O=C(/C=C/c1c[nH]c2ccccc12)c1cccnc1`, the melting point was 192 to 194 °C.

`COC(=O)C1CCc2cc(OC)ccc2C1=O` (stereo unspecified): the melting point is 82 to 84 °C.

Turning to `COc1ccc2[nH]c3cc(-c4cccc([N+](=O)[O-])c4)c4c(c3c2c1)C(=O)NC4=O`, the melting point is over 340 °C.

In turn, `CCS(=O)(=O)c1ccc(C(CC2CCCC2)C(=O)NC(=O)NC)cc1` (stereo unspecified) showed a melting point of 200 to 201 °C.

`Cc1cc(Oc2ccc([N+](=O)[O-])cc2)n[nH]1` yielded a melting point of 124 to 125 °C.

`Oc1ccc(Nc2cc(-c3ccccc3)[nH]n2)cc1` had a melting point of 215 to 217 °C.

In the case of `COc1cc(F)ccc1Oc1c(Cl)nc(-c2ncccn2)nc1NS(=O)(=O)c1ccc(C(C)(C)C)cc1`, the melting point lay in the range of 225 to 227 °C.

For the molecule `Cc1ccc(S(=O)(=O)OCc2cc([N+](=O)[O-])ccc2F)cc1`, the melting point is 89 to 91 °C.

On to `CCOC(=O)c1nc(-c2ccc(F)cc2)[nH]c1N=NN(C)C`, for which the melting point was 177 °C.

On to `COc1ccc(CNc2nc(N3CCC[C@H]3CO)ncc2C(=O)NCc2ncccn2)cc1Cl`, for which the melting point lay within 160 to 163 °C.

`CCCc1c(C(=O)C(C)C)c2ccc(C(N)=O)cc2n1C(=O)c1ccccc1Cl` showed a melting point of 125 to 126 °C.

Molecule `O=S(=O)(c1ccc(Cl)cc1)C(CCl)Sc1ccc(Br)cc1` (stereo unspecified) returned a melting point of 76 to 78 °C.

As for `N#CN=C1NCCN1Cc1ccccc1`, the melting point lay in the range of 120 to 122 °C.

With `CCOC(=O)c1cn(CC)c2nc3cc(F)c(F)cc3cc2c1=O`, the melting point worked out at 270 °C.

Consider `CCOCC1=C(C(=O)OCC)C(c2ccccc2C(F)(F)F)C(C(=O)OCC)=C(C)N1` (stereo unspecified), for which the melting point turned out to be 112 °C.

For `CC(C)S(=O)(=O)NC(=O)c1cccc([N+](=O)[O-])c1`, the melting point lay in the range of 175 to 177 °C.

Take `COC(=O)C1=C(C)NC(C)=C(C(=O)OC)C1c1cccc(NC(=O)C(F)(F)F)c1`: the melting point was in the range of 231 to 232 °C.

`COC(=O)C(C)(C)Cc1c(C(=O)c2ccc(Cl)cc2)c2ccc(OC(=O)c3ccc(Cl)cc3)cc2n1C` displayed a melting point of 138 °C.

For the molecule `CC(=O)NCCCCCCCCCCC(=O)O`, the melting point is 62 to 65 °C.

The molecule `CC(=O)n1nc(C)c(Oc2cc(F)cc(C#N)c2)c1C` returned a melting point of 109 to 111 °C.

As usually defined, the melting point is the temperature of the solid-liquid transition.
